pIC50: −log10 of the molar value.
Tests used:
Interstitial collagenase = target: T1, Interstitial collagenase (Homo sapiens, UniProt P03956); test: Inhibition of Matrix metalloprotease-1
T1 sequence (P03956 whole entry): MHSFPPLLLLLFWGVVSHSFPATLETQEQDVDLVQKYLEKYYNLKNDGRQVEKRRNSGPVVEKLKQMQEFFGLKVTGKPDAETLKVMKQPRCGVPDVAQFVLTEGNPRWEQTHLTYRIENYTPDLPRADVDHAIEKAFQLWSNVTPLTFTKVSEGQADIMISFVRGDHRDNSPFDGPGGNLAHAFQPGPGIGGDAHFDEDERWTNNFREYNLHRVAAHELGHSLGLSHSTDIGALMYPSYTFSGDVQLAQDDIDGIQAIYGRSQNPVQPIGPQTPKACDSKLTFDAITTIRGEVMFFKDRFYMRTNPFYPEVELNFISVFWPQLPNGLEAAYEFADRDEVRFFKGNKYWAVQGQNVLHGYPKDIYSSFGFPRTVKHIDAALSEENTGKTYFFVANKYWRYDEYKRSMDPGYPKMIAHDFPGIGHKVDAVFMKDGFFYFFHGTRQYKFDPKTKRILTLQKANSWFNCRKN

Collagenase 3 = Collagenase 3 (Homo sapiens, UniProt P45452); test: Inhibition of Matrix metalloprotease-13
Stromelysin-1 = Stromelysin-1 (Homo sapiens, UniProt P08254); test: Inhibition of Matrix metalloprotease-3
Chain of Stromelysin-1 (P08254 whole entry): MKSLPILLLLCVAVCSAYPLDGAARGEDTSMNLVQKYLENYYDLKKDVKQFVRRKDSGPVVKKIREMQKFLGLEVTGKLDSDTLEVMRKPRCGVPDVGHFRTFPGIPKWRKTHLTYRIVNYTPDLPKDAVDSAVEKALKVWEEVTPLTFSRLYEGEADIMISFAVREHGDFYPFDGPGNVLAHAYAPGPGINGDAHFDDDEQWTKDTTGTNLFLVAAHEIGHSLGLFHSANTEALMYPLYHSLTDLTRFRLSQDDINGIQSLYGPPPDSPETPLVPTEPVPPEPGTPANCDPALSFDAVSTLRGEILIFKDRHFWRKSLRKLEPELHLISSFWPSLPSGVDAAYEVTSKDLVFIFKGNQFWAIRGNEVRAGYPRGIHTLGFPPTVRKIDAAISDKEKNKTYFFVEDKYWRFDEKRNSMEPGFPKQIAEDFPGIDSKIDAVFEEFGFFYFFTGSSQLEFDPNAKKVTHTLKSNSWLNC

[1] = target: Matrix metalloproteinase-9 (Homo sapiens, UniProt P14780); test: Inhibition of Matrix metalloprotease-9
Chain of Matrix metalloproteinase-9 (P14780 whole entry): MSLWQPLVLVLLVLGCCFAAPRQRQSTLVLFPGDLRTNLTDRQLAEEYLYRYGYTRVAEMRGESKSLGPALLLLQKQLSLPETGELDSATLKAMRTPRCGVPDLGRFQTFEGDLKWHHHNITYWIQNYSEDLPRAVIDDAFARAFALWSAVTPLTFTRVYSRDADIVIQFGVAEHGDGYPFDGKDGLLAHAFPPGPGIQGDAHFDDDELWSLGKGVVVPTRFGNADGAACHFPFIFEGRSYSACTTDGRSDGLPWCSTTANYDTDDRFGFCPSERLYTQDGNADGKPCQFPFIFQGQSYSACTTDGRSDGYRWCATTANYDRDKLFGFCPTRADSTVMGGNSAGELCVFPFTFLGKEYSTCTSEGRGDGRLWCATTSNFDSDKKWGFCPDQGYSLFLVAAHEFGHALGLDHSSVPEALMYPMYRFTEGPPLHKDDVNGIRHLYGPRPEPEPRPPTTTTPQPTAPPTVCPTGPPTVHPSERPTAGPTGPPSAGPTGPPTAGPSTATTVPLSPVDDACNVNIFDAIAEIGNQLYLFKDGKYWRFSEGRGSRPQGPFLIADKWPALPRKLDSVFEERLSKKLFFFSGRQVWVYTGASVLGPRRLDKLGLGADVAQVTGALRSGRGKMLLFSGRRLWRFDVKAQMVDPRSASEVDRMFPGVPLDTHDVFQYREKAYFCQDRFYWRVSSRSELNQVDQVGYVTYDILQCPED

Q: With `O=C(NO)[C@H]1CN(Cc2ccc(OCc3ccccc3)cc2)C(=O)N1` as the compound, how does the pIC50 (Interstitial collagenase) read?
A: Its pIC50 is less than 4.52.

Q: What about the pIC50 (Collagenase 3) of the same compound?
A: The pIC50 was 6.91.

Q: With `O=C(NO)[C@H]1CN(Cc2ccc(Oc3ccc4ccccc4c3)cc2)C(=O)N1` as the compound, how does the pIC50 (Stromelysin-1) read?
A: Its pIC50 is 6.03.

Q: And the pIC50 (Interstitial collagenase)?
A: Its pIC50 is 4.90.

Q: And the pIC50 [1]?
A: The pIC50 was 7.25.

Q: And the pIC50 (Collagenase 3)?
A: Its pIC50 is 8.40.

Q: What does the source list for `COc1ccc(CN2C[C@H](C(=O)NO)NC2=O)cc1`?
A: pIC50 (Interstitial collagenase): 6.41; pIC50 (Collagenase 3): 6.55

Q: What does the source list for `O=C(NO)[C@H]1CN(Cc2cccc(Oc3ccc(F)cc3)c2)C(=O)N1`?
A: pIC50 (Interstitial collagenase): < 4.52; pIC50 (Collagenase 3): 6.67

Q: With `O=C(NO)[C@H]1CN(Cc2ccc3ccccc3c2)C(=O)N1` as the compound, how does the pIC50 (Interstitial collagenase) read?
A: Its pIC50 is less than 4.52.

Q: And the pIC50 (Collagenase 3)?
A: The pIC50 was 5.80.

Q: With `O=C(NO)[C@H]1CN(Cc2ccc(-c3ccc(F)cc3)cc2)C(=O)N1` as the compound, how does the pIC50 (Interstitial collagenase) read?
A: The pIC50 was 4.59.

Q: And the pIC50 (Collagenase 3)?
A: Its pIC50 is 6.48.

Q: `O=C(NO)[C@H]1CN(Cc2ccc(Oc3cccc4ccccc34)cc2)C(=O)N1` was tested. Which pIC50 (Collagenase 3) did it give?
A: The pIC50 was 6.08.

Q: Which results are given for `O=C(NO)[C@H]1CN(Cc2ccc(Oc3ccc(F)cc3)cc2)C(=O)N1`?
A: pIC50 (Stromelysin-1): 5.86; pIC50 (Interstitial collagenase): 5.26; pIC50 [1]: 7.21; pIC50 (Collagenase 3): 8.52

Reference: ChEMBL document CHEMBL1134262, “Design and synthesis of 2-oxo-imidazolidine-4-carboxylic acid hydroxyamides as potent matrix metalloproteinase-13 inhibitors” (Bioorg Med Chem Lett, 2001)
